Source: patent publication US20030162762A1, “Novel cephalosporin compounds and process for preparing the same” (priority 2000, published 2003)
≈ marks a conversion by molar mass, not a printed value. Like-named read-outs stand apart in the source and are kept apart here.

Columns and labels:
Experiment in all cases: Minimum Inhibitory Concentration (MIC), agar dilution, standard strains
S. aureus 77 = format: cell-based, Staphylococcus aureus; settings: for MIC: read-out: Minimum Inhibitory Concentration, S. aureus 77
Procedure: (§1) The effectiveness of the compound according to the present invention was determined by obtaining Minimum Inhibitory Concentration (MIC) of the compounds prepared by the above examples (Compounds I-1 to I-41) and vancomycin, which is the known compound having a potent activity against gram-positive strains, as the control drug against the standard strains. Specifically, Minimum Inhibitory Concentration was obtained by diluting the test compound according to a double dilution method, dispersing them in Mueller-Hinton agar medium, inoculating each of the test strain having 10^7 cfu (colony forming unit) per ml in an amount of 2 μl to the medium and then incubating them at 37° C. for 20 hours. From the result of Minimum Inhibitory Concentration test, it can be seen that the compound according to the present invention has a good activity against major pathogenic microorganisms, which cause hospital infection, including MRSA strains.

S. aureus 241 = format: cell-based, Staphylococcus aureus; settings: Staphylococcus aureus, 241, 20 h, read-out: Minimum Inhibitory Concentration, S. aureus 241
Procedure: as §1

S. aureus K311 = format: cell-based, Staphylococcus aureus; settings: for MIC: Staphylococcus aureus, read-out: Minimum Inhibitory Concentration, S. aureus K311
Procedure: as §1

E. faecalis EFS004 = format: cell-based; settings: for MIC: Enterococcus faecalis, read-out: Minimum Inhibitory Concentration, E. faecalis EFS004
Procedure: as §1

[1] = tested on: Staphylococcus aureus giorgio; format: cell-based; settings: for MIC: Staphylococcus aureus, read-out: Minimum Inhibitory Concentration, Staphylococcus aureus giorgio
Procedure: as §1

S. epidermidis R005 = format: cell-based; settings: for MIC: Staphylococcus epidermidis, read-out: Minimum Inhibitory Concentration, S. epidermidis R005
Procedure: as §1

E. faecalis L239 = format: cell-based; settings: Enterococcus faecalis, L239, 20 h, read-out: Minimum Inhibitory Concentration, E. faecalis L239
Procedure: as §1

[2] = Table 2, Mueller-Hinton agar, 37° C., 20 hours
[3] = Staphylococcus aureus, 77, Table 2, Mueller-Hinton agar, 37° C., 20 hours
[4] = K311, Table 2, Mueller-Hinton agar, 37° C., 20 hours
[5] = EFS004, Table 2, Mueller-Hinton agar, 37° C., 20 hours
[6] = R005, Table 2, Mueller-Hinton agar, 37° C., 20 hours

SMILES | Minimum Inhibitory Concentration, S. aureus 77 (S. aureus 77; [2]) | Minimum Inhibitory Concentration, Staphylococcus aureus giorgio [1, 2] | Minimum Inhibitory Concentration, S. epidermidis R005 (S. epidermidis R005; [2]) | MIC (S. aureus 77; [3]) | MIC (S. aureus K311; [4]) | MIC (E. faecalis EFS004; [5]) | MIC [1, 2] | MIC (S. epidermidis R005; [6]) | Minimum Inhibitory Concentration, S. aureus K311 (S. aureus K311; [2]) | Minimum Inhibitory Concentration, E. faecalis EFS004 (E. faecalis EFS004; [2]) | further results
CN[C@H](CC(C)C)C(=O)N[C@H]1C(=O)N[C@@H](CC(N)=O)C(=O)N[C@H]2C(=O)N[C@H]3C(=O)N[C@H](C(=O)N[C@H](C(=O)O)c4cc(O)cc(O)c4-c4cc3ccc4O)[C@H](O)c3ccc(c(Cl)c3)Oc3cc2cc(c3O[C@@H]2O[C@H](CO)[C@@H](O)[C@H](O)[C@H]2O[C@H]2C[C@](C)(N)[C@H](O)[C@H](C)O2)Oc2ccc(cc2Cl)[C@H]1O [Vancomycin, vancomycin, reference compound] | 1 µg/mL | 1 µg/mL | 1 µg/mL | – | – | – | – | – | – | – | MIC (S. aureus 77; Staphylococcus aureus, 77, 20 h): 1 µg/mL (≈ 0.69 µM); MIC (S. aureus 241): 2 µg/mL (≈ 1.38 µM); MIC (S. aureus K311; K311, 20 h): 2 µg/mL (≈ 1.38 µM); MIC (E. faecalis EFS004; EFS004, 20 h): 2 µg/mL (≈ 1.38 µM); MIC ([1]; 20 h): 1 µg/mL (≈ 0.69 µM); MIC (S. epidermidis R005; R005, 20 h): 1 µg/mL (≈ 0.69 µM); MIC (E. faecalis L239): 2 µg/mL (≈ 1.38 µM)
Nc1cc(N)nc(SC/C=C/C2=C(C(=O)O)N3C(=O)[C@@H](NC(=O)CSc4cc(Cl)nc(Cl)c4)[C@H]3SC2)n1 [Compound I-8, (6R,7R)-3-{(E)-3-[(4,6-diamino-2-pyrimidinyl)sulfanyl]-1-propenyl}-7-({2-[(2,6-dichloro-4-pyridinyl)sulfanyl]acetyl}amino)-8-oxo-5-thia-1-azabicyclo[4.2.0]oct-2-ene-2-carboxylic acid] | – | – | – | 0.25 µg/mL (≈ 0.416 µM) | 0.5 µg/mL (≈ 0.833 µM) | 1 µg/mL (≈ 1.67 µM) | 0.031 µg/mL (≈ 0.0516 µM) | 0.5 µg/mL (≈ 0.833 µM) | – | – | –
Cn1c(N)n[n+]2c(SC/C=C/C3=C(C(=O)O)N4C(=O)[C@@H](NC(=O)CSc5cc(Cl)nc(Cl)c5)[C@H]4SC3)nc(N)cc12 [Compound I-14, 2,7-diamino-5-({(E)-3-[(6R,7R)-2-carboxy-7-({2-[(2,6-dichloro-4-pyridinyl)sulfanyl]acetyl}amino)-8-oxo-5-thia-1-azabicyclo[4.2.0]oct-2-en-3-yl]-2-propenyl}sulfanyl)-1-methyl-1H-[1,2,4]triazolo[1,5-c]pyrimidin-4-ium] | 0.13 µg/mL | <0.008 µg/mL | 0.13 µg/mL | – | – | – | – | – | 0.25 µg/mL | 1 µg/mL | –
Nc1nc(O)cc(SC/C=C/C2=C(C(=O)O)N3C(=O)[C@@H](NC(=O)CSc4cc(Cl)nc(Cl)c4)[C@H]3SC2)n1 [Compound I-10, (6R,7R)-3-{(E)-3-[(2-amino-6-hydroxy-4-pyrimidinyl)sulfanyl]-1-propenyl}-7-({2-[(2,6-dichloro-4-pyridinyl)sulfanyl]acetyl}amino)-8-oxo-5-thia-1-azabicyclo [4.2.0]oct-2-ene-2-carboxylic acid] | – | – | – | 0.25 µg/mL (≈ 0.416 µM) | 0.5 µg/mL (≈ 0.831 µM) | 1 µg/mL (≈ 1.66 µM) | 0.016 µg/mL (≈ 0.0266 µM) | 0.25 µg/mL (≈ 0.416 µM) | – | – | –
Nc1nc(SC/C=C/C2=C(C(=O)O)N3C(=O)[C@@H](NC(=O)CSc4cc(Cl)nc(Cl)c4)[C@H]3SC2)c2c([n+]1N)CCC2 [Compound I-17, 1,2-diamino-4-({(E)-3-[(6R,7R)-2-carboxy-7-({2-[(2,6-dichloro-4-pyridinyl)sulfanyl]acetyl}amino)-8-oxo-5-thia-1-azabicyclo[4.2.0]oct-2-en-3-yl]-2-propenyl}sulfanyl)-6,7-dihydro-5H-cyclopenta[d]pyrimidin-1-ium] | 0.25 µg/mL | <0.008 µg/mL | 0.25 µg/mL | – | – | – | – | – | 0.5 µg/mL | 0.5 µg/mL | –
Nc1cc(SC/C=C/C2=C(C(=O)O)N3C(=O)[C@@H](NC(=O)CSc4cc(Cl)nc(Cl)c4)[C@H]3SC2)nc(N)n1 [Compound I-11, (6R,7R)-3-{(E)-3-[(2,6-diamino-4-pyrimidinyl)sulfanyl]-1-propenyl}-7-( {2-[(2,6-dichloro-4-pyridinyl)sulfanyl]acetyl}amino)-8-oxo-5-thia-1-azabicyclo[4.2.0]oct-2-ene-2-carboxylic acid] | – | – | – | 0.25 µg/mL (≈ 0.416 µM) | 0.5 µg/mL (≈ 0.833 µM) | 2 µg/mL (≈ 3.33 µM) | 0.016 µg/mL (≈ 0.0266 µM) | 0.5 µg/mL (≈ 0.833 µM) | – | – | –
CC[n+]1c(N)cc(N)nc1SC/C=C/C1=C(C(=O)O)N2C(=O)[C@@H](NC(=O)CSc3cc(Cl)nc(Cl)c3)[C@H]2SC1 [Compound I-16, 4,6-diamino-2-({(E)-3-[(6R,7R)-2-carboxy-7-({2-[(2,6-dichloro-4-pyridinyl)sulfanyl]acetyl}amino)-8-oxo-5-thia-1-azabicyclo[4.2.0]oct-2-en-3-yl]-2-propenyl}sulfanyl)-1-ethylpyrimidin-1-ium] | 0.13 µg/mL | <0.008 µg/mL | 0.13 µg/mL | – | – | – | – | – | 0.5 µg/mL | 0.5 µg/mL | –
Nc1cc(N)[n+](C/C=C/C2=C(C(=O)O)N3C(=O)[C@@H](NC(=O)CSc4cc(Cl)nc(Cl)c4)[C@H]3SC2)cn1 [Compound I-18] | 0.25 µg/mL | 0.016 µg/mL | 0.25 µg/mL | – | – | – | – | – | 1 µg/mL | 1 µg/mL | –
